Experimental data as given in patent US10231453B2, “5-substituted imidazole derivatives” (BAYER CROPSCIENCE AKTIENGESELLSCHAFT, priority 2015, dated 2019).

Legend:
[1] = Measurement of LogP values by HPLC on reversed phase columns (EEC directive 79/831 Annex V.A8); assay type: physicochemical; conditions: method [a]: LC-UV, acidic range, 0.1% formic acid in water and acetonitrile as eluent
Experimental: Measurement of Log P values was performed as outlined above.

[2] = test system: Puccinia recondita; assay: In vivo preventive test on Puccinia recondita (brown rust on wheat), Examples C and R3; conditions: Puccinia recondita, 264 h, Example R3, wheat, preventive spray, evaluated 11 days after inoculation, read-out: Efficacy in %
[3] = test system: Septoria tritici; assay: In vivo preventive test on Septoria tritici (leaf spot on wheat), Examples E, Q3 and R5; conditions: Zymoseptoria tritici, 576 h, Example R5, wheat, preventive spray, evaluated 24 days after inoculation, read-out: Efficacy in %
[4] = test system: Sphaerotheca fuliginea; assay: In vivo preventive test on Sphaerotheca fuliginea (powdery mildew on cucurbits), Examples F and R6; conditions: Podosphaera fuliginea, 360 h, Example R6, gherkin, preventive spray, evaluated 15 days after inoculation, read-out: Efficacy in %
[5] = test system: Uromyces appendiculatus; assay: In vivo preventive test on Uromyces appendiculatus (bean rust), Examples G and R7; conditions: 264 h, Example R7, bean, preventive spray, evaluated 11 days after inoculation, read-out: Efficacy in %

SMILES: N#Cc1cncn1CC(O)(Cc1ccncc1F)C1(Cl)CC1 (stereo not drawn) [Example I-163]
- chromatographic logP ([1]; Table 1): 1.62

SMILES: N#Cc1cncn1CC(O)(Cc1ccnnc1Cl)C1(Cl)CC1 (stereo not drawn) [Example I-168]
- chromatographic logP ([1]; Table 1): 1.59

SMILES: O=C(Cn1cncc1Cl)C1(Cl)CC1 [XVII-1, 1-(1-chlorocyclopropyl)-2-(5-chloro-1H-imidazol-1-yl)ethanone]
- chromatographic logP ([1]; Table 2, compounds of formula (XVII)): 0.75

SMILES: OC(Cc1ccccc1Cl)(Cn1cnc(Br)c1)C1(Cl)CC1 (stereo not drawn) [drawing 87]
- pest or weed control at 100 ppm [2]: 75%
- pest or weed control at 500 ppm [2]: 81%

SMILES: Cc1cn(CC(O)(Cc2ccccc2Cl)C2(Cl)CC2)cn1 (stereo not drawn) [drawing 89]
- pest or weed control at 100 ppm [2]: 29%
- pest or weed control at 500 ppm [2]: 86%

SMILES: N#Cc1cn(CC(O)(Cc2ccccc2Cl)C2(Cl)CC2)cn1 (stereo not drawn) [drawing 91]
- pest or weed control at 100 ppm [2]: 0%
- pest or weed control at 500 ppm [2]: 83%

SMILES: C#Cc1cn(CC(O)(Cc2ccccc2F)C2(Cl)CC2)cn1 (stereo not drawn) [drawing 93]
- pest or weed control at 100 ppm [2]: 0%
- pest or weed control at 500 ppm [2]: 13%

SMILES: OC(Cc1ccccc1F)(Cn1cnc(Cl)c1)C1(Cl)CC1 (stereo not drawn) [drawing 95]
- pest or weed control at 100 ppm [2]: 0%
- pest or weed control at 500 ppm [2]: 33%

SMILES: OC(Cc1ccccc1F)(Cn1ccnc1Cl)C1(Cl)CC1 (stereo not drawn) [drawing 96]
- pest or weed control at 100 ppm [2]: 0%
- pest or weed control at 500 ppm [2]: 0%

SMILES: N#Cc1cn(CC(O)(Cc2ccccc2F)C2(Cl)CC2)cn1 (stereo not drawn) [drawing 104]
- pest or weed control at 100 ppm [2]: 11%
- pest or weed control at 500 ppm [2]: 78%

SMILES: OC(Cc1ccccc1Cl)(Cn1cnc(Br)c1)C1(Cl)CC1 (stereo not drawn) [drawing 123]
- pest or weed control at 100 ppm [3]: 75%
- pest or weed control at 500 ppm [3]: 83%

SMILES: Cc1cn(CC(O)(Cc2ccccc2Cl)C2(Cl)CC2)cn1 (stereo not drawn) [drawing 125]
- pest or weed control at 100 ppm [3]: 17%
- pest or weed control at 500 ppm [3]: 33%

SMILES: N#Cc1cn(CC(O)(Cc2ccccc2Cl)C2(Cl)CC2)cn1 (stereo not drawn) [drawing 127]
- pest or weed control at 100 ppm [3]: 44%
- pest or weed control at 500 ppm [3]: 78%

SMILES: C#Cc1cn(CC(O)(Cc2ccccc2F)C2(Cl)CC2)cn1 (stereo not drawn) [drawing 129]
- pest or weed control at 100 ppm [3]: 63%
- pest or weed control at 500 ppm [3]: 63%

SMILES: OC(Cc1ccccc1F)(Cn1cnc(Cl)c1)C1(Cl)CC1 (stereo not drawn) [drawing 131]
- pest or weed control at 100 ppm [3]: 0%
- pest or weed control at 500 ppm [3]: 93%

SMILES: OC(Cc1ccccc1F)(Cn1ccnc1Cl)C1(Cl)CC1 (stereo not drawn) [drawing 132]
- pest or weed control at 100 ppm [3]: 20%
- pest or weed control at 500 ppm [3]: 96%

SMILES: N#Cc1cn(CC(O)(Cc2ccccc2F)C2(Cl)CC2)cn1 (stereo not drawn) [drawing 140]
- pest or weed control at 100 ppm [3]: 14%
- pest or weed control at 500 ppm [3]: 86%

SMILES: OC(Cc1ccccc1Cl)(Cn1cnc(Br)c1)C1(Cl)CC1 (stereo not drawn) [drawing 142]
- pest or weed control at 100 ppm [4]: 20%
- pest or weed control at 500 ppm [4]: 30%

SMILES: Cc1cn(CC(O)(Cc2ccccc2Cl)C2(Cl)CC2)cn1 (stereo not drawn) [drawing 144]
- pest or weed control at 100 ppm [4]: 0%
- pest or weed control at 500 ppm [4]: 30%

SMILES: C#Cc1cn(CC(O)(Cc2ccccc2F)C2(Cl)CC2)cn1 (stereo not drawn) [drawing 146]
- pest or weed control at 100 ppm [4]: 0%
- pest or weed control at 500 ppm [4]: 60%

SMILES: OC(Cc1ccccc1F)(Cn1cnc(Cl)c1)C1(Cl)CC1 (stereo not drawn) [drawing 148]
- pest or weed control at 100 ppm [4]: 60%
- pest or weed control at 500 ppm [4]: 98%

SMILES: OC(Cc1ccccc1F)(Cn1ccnc1Cl)C1(Cl)CC1 (stereo not drawn) [drawing 149]
- pest or weed control at 100 ppm [4]: 0%
- pest or weed control at 500 ppm [4]: 78%

SMILES: N#Cc1cn(CC(O)(Cc2ccccc2F)C2(Cl)CC2)cn1 (stereo not drawn) [drawing 157]
- pest or weed control at 100 ppm [4]: 95%
- pest or weed control at 500 ppm [4]: 95%

SMILES: OC(Cc1ccccc1Cl)(Cn1cnc(Br)c1)C1(Cl)CC1 (stereo not drawn) [drawing 159]
- pest or weed control at 100 ppm [5]: 56%
- pest or weed control at 500 ppm [5]: 47%

SMILES: Cc1cn(CC(O)(Cc2ccccc2Cl)C2(Cl)CC2)cn1 (stereo not drawn) [drawing 161]
- pest or weed control at 100 ppm [5]: 0%
- pest or weed control at 500 ppm [5]: 100%

SMILES: N#Cc1cn(CC(O)(Cc2ccccc2Cl)C2(Cl)CC2)cn1 (stereo not drawn) [drawing 163]
- pest or weed control at 100 ppm [5]: 25%
- pest or weed control at 500 ppm [5]: 50%

SMILES: C#Cc1cn(CC(O)(Cc2ccccc2F)C2(Cl)CC2)cn1 (stereo not drawn) [drawing 165]
- pest or weed control at 100 ppm [5]: 0%
- pest or weed control at 500 ppm [5]: 0%

SMILES: OC(Cc1ccccc1F)(Cn1cnc(Cl)c1)C1(Cl)CC1 (stereo not drawn) [drawing 167]
- pest or weed control at 100 ppm [5]: 0%
- pest or weed control at 500 ppm [5]: 0%

SMILES: OC(Cc1ccccc1F)(Cn1ccnc1Cl)C1(Cl)CC1 (stereo not drawn) [drawing 168]
- pest or weed control at 100 ppm [5]: 0%
- pest or weed control at 500 ppm [5]: 0%

SMILES: N#Cc1cn(CC(O)(Cc2ccccc2F)C2(Cl)CC2)cn1 (stereo not drawn) [drawing 176]
- pest or weed control at 100 ppm [5]: 25%
- pest or weed control at 500 ppm [5]: 56%
